The record followed here is US11186566B2, “Modulator of cystic fibrosis transmembrane conductance regulator, pharmaceutical compositions, methods of treatment, and process for making the modulator” (Vertex Pharmaceuticals Incorporated, priority 2016, dated 2021).

As usually defined, the EC50 is the concentration that produces a half-maximal response.

SMILES strings stand for the structures.

Chain of F508del-CFTR (P13569 other isoform, or with tags, fused parts or gaps del F508-F508): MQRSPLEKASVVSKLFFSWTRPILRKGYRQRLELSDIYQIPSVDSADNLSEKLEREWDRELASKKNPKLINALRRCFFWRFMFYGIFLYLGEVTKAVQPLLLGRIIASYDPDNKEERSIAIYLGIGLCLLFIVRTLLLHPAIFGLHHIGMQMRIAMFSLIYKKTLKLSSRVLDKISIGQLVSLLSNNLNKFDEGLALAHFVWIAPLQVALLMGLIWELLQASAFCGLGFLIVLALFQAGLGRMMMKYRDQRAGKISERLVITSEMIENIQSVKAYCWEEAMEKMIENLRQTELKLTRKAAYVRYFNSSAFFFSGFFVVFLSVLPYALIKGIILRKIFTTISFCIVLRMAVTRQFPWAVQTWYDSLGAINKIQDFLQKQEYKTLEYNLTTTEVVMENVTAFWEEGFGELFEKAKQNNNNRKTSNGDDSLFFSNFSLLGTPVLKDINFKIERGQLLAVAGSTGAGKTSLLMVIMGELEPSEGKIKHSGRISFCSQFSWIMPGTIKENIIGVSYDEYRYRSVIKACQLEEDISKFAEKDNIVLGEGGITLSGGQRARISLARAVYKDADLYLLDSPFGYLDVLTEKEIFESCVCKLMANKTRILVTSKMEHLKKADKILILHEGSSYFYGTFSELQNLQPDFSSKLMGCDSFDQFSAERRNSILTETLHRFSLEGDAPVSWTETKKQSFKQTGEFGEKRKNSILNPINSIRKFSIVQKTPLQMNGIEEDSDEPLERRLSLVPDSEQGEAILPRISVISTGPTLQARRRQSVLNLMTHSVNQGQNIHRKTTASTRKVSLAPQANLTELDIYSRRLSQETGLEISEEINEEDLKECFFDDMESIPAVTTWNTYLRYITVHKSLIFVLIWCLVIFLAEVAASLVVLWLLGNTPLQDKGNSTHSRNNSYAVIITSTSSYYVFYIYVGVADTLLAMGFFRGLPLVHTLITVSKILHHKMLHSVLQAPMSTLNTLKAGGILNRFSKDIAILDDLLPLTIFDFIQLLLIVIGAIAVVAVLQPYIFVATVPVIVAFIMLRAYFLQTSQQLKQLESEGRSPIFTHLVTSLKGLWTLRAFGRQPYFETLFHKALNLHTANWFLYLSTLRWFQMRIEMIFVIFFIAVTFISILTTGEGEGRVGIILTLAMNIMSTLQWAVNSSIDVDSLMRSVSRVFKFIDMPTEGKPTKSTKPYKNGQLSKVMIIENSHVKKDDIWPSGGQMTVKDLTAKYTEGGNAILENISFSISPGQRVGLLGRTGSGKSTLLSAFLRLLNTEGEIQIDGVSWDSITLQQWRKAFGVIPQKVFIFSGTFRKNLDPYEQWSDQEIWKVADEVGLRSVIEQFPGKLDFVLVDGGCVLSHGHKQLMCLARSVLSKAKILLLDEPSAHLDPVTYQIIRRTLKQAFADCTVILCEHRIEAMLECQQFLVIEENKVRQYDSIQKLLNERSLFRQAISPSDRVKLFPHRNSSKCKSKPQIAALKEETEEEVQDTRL

In the first experiment the target is F508del-CFTR (Homo sapiens (Human), UniProt P13569, DEL508-508). Nature of the experiment: Membrane potential optical (fluorescent voltage sensing dye, FLIPR III) HTS assay for F508del-CFTR modulators. The experiment is classed as cell-based. Particulars: F508del NIH 3T3 cells, assay 5A-A1; read-out: CFTRdF508 EC50. The text has this:
Membrane Potential Optical Methods for Assaying Properties of F508del-CFTR Modulators
The assay utilizes fluorescent voltage sensing dyes to measure changes in membrane potential using a fluorescent plate reader (e.g., FLIPR III, Molecular Devices, Inc.) as a readout for increase in functional F508del in NIH 3T3 cells.
5A-A1. Identification of F508Del-CFTR Modulators
To identify modulators of F508del, a fluorescence based HTS assay format was developed. This HTS assay utilizes fluorescent voltage sensing dyes to measure changes in membrane potential on the FLIPR III as a measurement for increase in gating (conductance) of F508del NIH 3T3 cells.
(in mM) NaCl 160, KCl 4.5, CaCl2 2, MgCl2 1, HEPES 10, pH 7.4 with NaOH, Glucose 10.
Chloride salts in Bath Solution #1 (above) are substituted with gluconate salts.
NIH3T3 mouse fibroblasts stably expressing F508del are used for optical measurements of membrane potential. The cells are maintained at 37° C. in 5% CO2 and 90% humidity in Dulbecco's modified Eagle's medium supplemented with 2 mM glutamine, 10% fetal bovine serum, 1×NEAA, β-ME, 1×pen/strep, and 25 mM HEPES in 175 cm^2 culture flasks. For all optical assays, the cells were seeded at 12,000 cells/well in 384-well matrigel-coated plates and cultured for 18-24 hrs at 37° C. for the potentiator assay. For the correction assays, the cells are cultured at 37° C. with and without compounds for 18-24 hours.
With `C[C@@H]1CN(c2nc(-n3ccc(O[C@@H]4C[C@@H]4C(F)(F)F)n3)ccc2C(=O)NS(=O)(=O)c2ccccc2)C(C)(C)C1` (racemic) [Compound 18, N-(Benzenesulfonyl)-6-[3-[(cis)-2-(trifluoromethyl)cyclopropoxy]pyrazol-1-yl]-2-[(4S)-2,2,4-trimethylpyrrolidin-1-yl]pyridine-3-carboxamide], the concentration for a half-maximal effect (EC50) was in the range of 100 to 1000 nM. Same read-out and setting: the figure for `C[C@@H]1CN(c2nc(-n3ccc(O[C@@H]4C[C@H]4C(F)(F)F)n3)ccc2C(=O)NS(=O)(=O)c2ccccc2)C(C)(C)C1` (racemic) [Compound 19, N-(Benzenesulfonyl)-6-[3-[(trans)-2-(trifluoromethyl)cyclopropoxy]pyrazol-1-yl]-2-[(4S)-2,2,4-trimethylpyrrolidin-1-yl]pyridine-3-carboxamide] is 100 to 1000 nM; for `C[C@@H]1CN(c2nc(-n3ccc(OCC4(C(F)(F)F)CC4)n3)ccc2C(=O)NS(=N)(=O)c2ccccc2)C(C)(C)C1` (single isomer, unassigned) [Compound 46] it is under 100 nM. On the same count and under the same terms, the figure for `C[C@H]1CN(c2nc(-n3ccc(OCCC4(C(F)(F)F)CC4)n3)ccc2C(=O)NS(=O)(=O)c2ccccc2)C(C)(C)C1` [Compound 2, (R)—N-(Phenylsulfonyl)-6-(3-(2-(1-(trifluoromethyl)cyclopropyl)ethoxy)-1H-pyrazol-1-yl)-2-(2,2,4-trimethylpyrrolidin-1-yl)nicotinamide] is 100 to 1000 nM. Same read-out and setting: the value for `COc1cc(S(=O)(=O)NC(=O)c2ccc(-n3ccc(OCCC4(C(F)(F)F)CC4)n3)nc2N2C[C@@H](C)CC2(C)C)ccc1O` [Compound 3, (S)—N-((4-Hydroxy-3-methoxyphenyl)sulfonyl)-6-(3-(2-(1-(trifluoromethyl)cyclopropyl)ethoxy)-1H-pyrazol-1-yl)-2-(2,2,4-trimethylpyrrolidin-1-yl)nicotinamide] was under 100 nM; that for `Cc1ccccc1S(=O)(=O)NC(=O)c1ccc(-n2ccc(OCC3C4(CC4)C34CC4)n2)nc1N1C[C@@H](C)CC1(C)C` [Compound 8, 6-[3-(Dispiro[2.0.2^4.1^3]heptan-7-ylmethoxy)pyrazol-1-yl]-N-(o-tolylsulfonyl)-2-[(4S)-2,2,4-trimethylpyrrolidin-1-yl]pyridine-3-carboxamide] was under 100 nM; that for `CC1(C)CC(CO)CN1c1nc(-n2ccc(OCCC3(C(F)(F)F)CC3)n2)ccc1C(=O)NS(=O)(=O)c1ccccc1` (stereo not drawn) [Compound 9, N-(Benzenesulfonyl)-2-[4-(hydroxymethyl)-2,2-dimethyl-pyrrolidin-1-yl]-6-[3-[2-[1-(trifluoromethyl)cyclopropyl]ethoxy]pyrazol-1-yl]pyridine-3-carboxamide] was 100 to 1000 nM. Consider `Cc1cc(C#N)ccc1S(=O)(=O)NC(=O)c1ccc(-n2ccc(OCC3(C(F)(F)F)CC3)n2)nc1N1C[C@@H](C)CC1(C)C` [Compound 11, N-(4-Cyano-2-methyl-phenyl)sulfonyl-6-[3-[[1-(trifluoromethyl)cyclopropyl]methoxy]pyrazol-1-yl]-2-[(4S)-2,2,4-trimethylpyrrolidin-1-yl]pyridine-3-carboxamide], for which the 50% effective concentration (EC50) is 100 to 1000 nM. As to `COc1cc(C)ccc1S(=O)(=O)NC(=O)c1ccc(-n2ccc(OCC3(C(F)(F)F)CC3)n2)nc1N1C[C@@H](C)CC1(C)C` [Compound 12, N-(2-Methoxy-4-methyl-phenyl)sulfonyl-6-[3-[[1-(trifluoromethyl)cyclopropyl]methoxy]pyrazol-1-yl]-2-[(4S)-2,2,4-trimethylpyrrolidin-1-yl]pyridine-3-carboxamide], the EC50 is under 100 nM. For the molecule `[2H]C([2H])([2H])[C@@H]1CN(c2nc(-n3ccc(OCCC4(C(F)(F)F)CC4)n3)ccc2C(=O)NS(=O)(=O)c2ccccc2)C(C)(C)C1([2H])[2H]` [Compound 17, N-(Benzenesulfonyl)-2-[(4S)-3,3-dideuterio-2,2-dimethyl-4-(trideuteriomethyl)pyrrolidin-1-yl]-6-[3-[2-[1-(trifluoromethyl)cyclopropyl]ethoxy]pyrazol-1-yl]pyridine-3-carboxamide], the EC50 is under 100 nM. As for `C[C@@H]1CN(c2nc(-n3ccc(OCC4(C(F)(F)F)CC4)n3)ccc2C(=O)NS(=O)(=O)c2ccccc2O)C(C)(C)C1` [Compound 20, N-(2-Hydroxyphenyl)sulfonyl-6-[3-[[1-(trifluoromethyl)cyclopropyl]methoxy]pyrazol-1-yl]-2-[(4S)-2,2,4-trimethylpyrrolidin-1-yl]pyridine-3-carboxamide], the EC50 was in the range of 100 to 1000 nM.

`C[C@@H]1CN(c2nc(-n3ccc(OCC4(C(F)(F)F)CC4)n3)ccc2C(=O)NS(=O)(=O)c2cccc(O)c2)C(C)(C)C1` [Compound 21, N-(3-Hydroxyphenyl)sulfonyl-6-[3-[[1-(trifluoromethyl)cyclopropyl]methoxy]pyrazol-1-yl]-2-[(4S)-2,2,4-trimethylpyrrolidin-1-yl]pyridine-3-carboxamide]: the concentration for a half-maximal effect (EC50) was under 100 nM. For the molecule `C[C@@H]1CN(c2nc(-n3ccc(OCC4(C(F)(F)F)CC4)n3)ccc2C(=O)NS(=O)(=O)c2cccc(C#N)c2)C(C)(C)C1` [Compound 25, N-(3-Cyanophenyl)sulfonyl-6-[3-[[1-(trifluoromethyl)cyclopropyl]methoxy]pyrazol-1-yl]-2-[(4S)-2,2,4-trimethylpyrrolidin-1-yl]pyridine-3-carboxamide], the EC50 is under 100 nM. Still for that read-out and setting: the value for `C[C@@H]1CN(c2nc(-n3ccc(OCC4(C(F)(F)F)CC4)n3)ccc2C(=O)NS(=O)(=O)c2ccccc2C#N)C(C)(C)C1` [Compound 26, N-(2-Cyanophenyl)sulfonyl-6-[3-[[1-(trifluoromethyl)cyclopropyl]methoxy]pyrazol-1-yl]-2-[(4S)-2,2,4-trimethylpyrrolidin-1-yl]pyridine-3-carboxamide] was over 1000 nM; that for `C[C@@H]1CN(c2nc(-n3ccc(OCCC4(C(F)(F)F)CC4)n3)ccc2C(=O)NS(=O)(=O)c2ccccc2O)C(C)(C)C1` [Compound 34, N-(2-hydroxyphenyl)sulfonyl-6-[3-[2-[1-(trifluoromethyl)cyclopropyl]ethoxy]pyrazol-1-yl]-2-[(4S)-2,2,4-trimethylpyrrolidin-1-yl]pyridine-3-carboxamide] was under 100 nM. The same measure, in the same setting: the value for `C[C@@H]1CN(c2nc(-n3ccc(OCCC4(C(F)(F)F)CC4)n3)ccc2C(=O)NS(=O)(=O)c2cccc(O)c2)C(C)(C)C1` [Compound 35, N-(3-Hydroxyphenyl)sulfonyl-6-[3-[2-[1-(trifluoromethyl)cyclopropyl]ethoxy]pyrazol-1-yl]-2-[(4S)-2,2,4-trimethylpyrrolidin-1-yl]pyridine-3-carboxamide] was under 100 nM.

In the case of `[2H]C([2H])(Oc1ccn(-c2ccc(C(=O)NS(=O)(=O)c3ccccc3)c(N3C[C@@H](C)CC3(C)C)n2)n1)C1C(C)(C)C1(C)C` [Compound 36, N-(Benzenesulfonyl)-6-[3-[dideuterio-(2,2,3,3-tetramethylcyclopropyl)methoxy]pyrazol-1-yl]-2-[(4S)-2,2,4-trimethylpyrrolidin-1-yl]pyridine-3-carboxamide], the EC50 is under 100 nM. Same read-out and setting: the figure for `C[C@@H]1CN(c2nc(-n3ccc(OCC(O)C4(C(F)(F)F)CC4)n3)ccc2C(=O)NS(=O)(=O)c2ccccc2)C(C)(C)C1` (stereo partly drawn) [Compound 38, N-(Benzenesulfonyl)-6-[3-[2-hydroxy-2-[1-(trifluoromethyl)cyclopropyl]ethoxy]pyrazol-1-yl]-2-[(4S)-2,2,4-trimethylpyrrolidin-1-yl]pyridine-3-carboxamide] is 100 to 1000 nM. On the same count and under the same terms, the value for `C[C@@H]1CN(c2nc(-n3ccc(OCC4(C(F)(F)F)CC4)n3)ccc2C(=O)NS(=N)(=O)c2ccccc2)C(C)(C)C1` (stereo partly drawn) [Compound 45, N-(amino(oxo)(phenyl)-λ^6-sulfaneylidene)-6-(3-((1-(trifluoromethyl)cyclopropyl)methoxy)-1H-pyrazol-1-yl)-2-((S)-2,2,4-trimethylpyrrolidin-1-yl)nicotinamide] was 100 to 1000 nM; that for `C[C@@H]1CN(c2nc(-n3ccc(OC4CC4)n3)ccc2C(=O)NS(=O)(=O)c2ccccc2)C(C)(C)C1` [Compound 48, N-(Benzenesulfonyl)-6-[3-(cyclopropoxy)pyrazol-1-yl]-2-[(4S)-2,2,4-trimethylpyrrolidin-1-yl]pyridine-3-carboxamide] was over 1000 nM. With `C[C@@H]1CN(c2nc(-n3ccc(OCC4(C(F)(F)F)CC4)n3)ccc2C(=O)NS(=O)(=O)c2ccc(F)cc2)C(C)(C)C1` [Compound 52, N-(4-fluorophenyl)sulfonyl-6-[3-[[1-(trifluoromethyl)cyclopropyl]methoxy]pyrazol-1-yl]-2-[(4S)-2,2,4-trimethylpyrrolidin-1-yl]pyridine-3-carboxamide], the concentration giving a half-maximal response (EC50) was under 100 nM. The same measure, in the same setting: the value for `COc1ccc(S(=O)(=O)NC(=O)c2ccc(-n3ccc(OCC4(C(F)(F)F)CC4)n3)nc2N2C[C@@H](C)CC2(C)C)cc1` [Compound 54, N-(4-methoxyphenyl)sulfonyl-6-[3-[[l-(trifluoromethyl)cyclopropyl]methoxy]pyrazol-1-yl]-2-[(4S)-2,2,4-trimethylpyrrolidin-1-yl]pyridine-3-carboxamide] was under 100 nM.

The experiment is the same for the next values; noted with them: Table 7, Compound 1 and metabolites; read-out: CFTRdF508 EC50.
Consider `C[C@@H]1CN(c2nc(-n3ccc(OCCC4(C(F)(F)F)CC4)n3)ccc2C(=O)NS(=O)(=O)c2ccccc2O)C(C)(C)C1` [Compound 34, N-(2-hydroxyphenyl)sulfonyl-6-[3-[2-[1-(trifluoromethyl)cyclopropyl]ethoxy]pyrazol-1-yl]-2-[(4S)-2,2,4-trimethylpyrrolidin-1-yl]pyridine-3-carboxamide], for which the EC50 stood at 90 nM. In the case of `C[C@@H]1CN(c2nc(-n3ccc(OCC(O)C4(C(F)(F)F)CC4)n3)ccc2C(=O)NS(=O)(=O)c2ccccc2)C(C)(C)C1` (stereo partly drawn) [Compound 38, N-(Benzenesulfonyl)-6-[3-[2-hydroxy-2-[1-(trifluoromethyl)cyclopropyl]ethoxy]pyrazol-1-yl]-2-[(4S)-2,2,4-trimethylpyrrolidin-1-yl]pyridine-3-carboxamide], the EC50 was found to be 240 nM.
